Among the data in patent publication US8575145B2, “Triazolopyridine compounds as PIM kinase inhibitors” (Array BioPharma Inc., priority 2008, dated 2013) are IC50 values, retold here.

Broadly, the IC50 is the concentration that inhibits the measured activity by half.

The subject of test [1] is CD4+ T cells. As to the kind of experiment: T Cell in vitro Functional Assay (D): IL-22 production. The class given is cell-based. The settings on record: Mus musculus; CD4+ T cells cultured with IL-6/TGFβ, IL-23 stimulation 18 hours, ELISA. How it is done:
The in vitro assays to assess the effects of the compounds of Examples 16, 18 and 26 on T cells were conducted as described in assays A, B, C and D below. CD4+ T cells were isolated from red blood cell-depleted splenocytes of C57B1/6J mice (Jackson Laboratories, catalog #000664) using CD4+ T cell isolation kit (Miltenyi, catalog #130-090-860).
In assay (D), 1,000,000 cells/mL of purified CD4+ T cells were mixed with 1 μg/mL anti-CD28, 50 ng/mL IL-6 (R&D Systems cat #406-ML-025/CF), 1 ng/mL TGFβ (R&D Systems cat #303-B2-002), 2 μg/mL anti-IL-4 (R&D Systems cat #AB-404-NA), 2 μg/mL anti-IFNγ (R&D Systems cat #AB-485-NA) and placed into plates coated with 1 μg/mL anti-CD3. After 4 days, cells were harvested, washed and 100,000 cells were plated into 96 well plate. A dilution series of compounds were prepared at 200× the final concentration in DMSO, then 10× stocks were prepared by dilution in cell culture media. 10 μL of 10× stocks were added to the cells in the 96 well plate. After 2 hours, 50 ng IL-23 (R&D Systems catalog #1887-ML-010/CF) was added to each well and 18 hours later supernatants were removed and tested for IL-22 levels by ELISA (R&D Systems catalog #M2200). ELISA plates were quantified relative to a standard curve using Molecular Devices Versamax Reader at […] and Softmax Pro software.
For each of assays A, B, C and D, the values for each well were converted to a percent of vehicle-treated (DMSO) control (POC). These POC values were plotted as a function of compound concentration and an IC50 calculated using a 4-parameter curve-fit analysis program.

Test [2] concerns MV4-11 (Acute myelogenous leukemia). As to the kind of experiment: Cellular Proliferation Assay, cell line C. To be noted: Homo sapiens; MV4-11, 72 hours, CelltiterBlue; read-out: Cell Line C antiproliferative IC50. Type of test: cell-based. How it is done: (§1) The assay for determination of the antiproliferative activity of multiple Pim inhibitors in the JAK2-driven cell lines was conducted as follows. Cells were plated out to 96-well plates at an initial density of 10,000 cells/well in 95 pt. Compounds were prepared at […] in DMSO by conducting 3-fold serial dilutions to give a 10-point dosing curve having a high dose of 1000 μM. Aliquots (5 μt) of these dilutions were then transferred to the appropriate wells of the 96-well plates containing cells to yield a final DMSO concentration of 0.5%. The cells were then incubated with compound for 72 hours at 37° C., 5% CO2. CelltiterBlue reagent (Promega, Catalog #: G8080) was then added (20 μL/well) and incubated at 37° C., 5% CO2 for 1-8 hours depending on the cell line being analyzed. The plate was then quantified employing a fluorescence plate reader (Model: Gemini [Molecular Devices]; Settings: 560 nm (Ex)/590 nm (Em) 570 nm (cut-off) [CellTiter Blue Assay].
The values for each well were then converted to a percent of untreated control (POC). These POC values were then plotted as a function of compound concentration. A 4-parameter curve-fit analysis was performed for each compound dilution and an IC50 value was calculated from this curve. […]

Test [3] deals with PIM-1 (Homo sapiens (Human), UniProt P11309). As to the kind of experiment: PIM-1 Enzyme Assay. The class given is biochemical. In a few lines:
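Radiometric kinase assay in 20 mM K+MOPS pH 7.4, 10 mM MgCl2, 0.005% Tween-20, 1 mM DTT, 2% DMSO final; 60 min at 22° C, stopped with H3PO4, product captured on P81 filter and counted by scintillation. IC50 from 4-parameter logistic fit of percent of control.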

Test [4] deals with PC3 (Androgen independent prostate cancer). As to the kind of experiment: Cellular Proliferation Assay, cell line A. Type of test: cell-based. To be noted: PC3, 72 hours, CelltiterBlue; read-out: Cell Line A antiproliferative IC50. How it is done: as §1
(§2) The values for each well were then converted to a percent of untreated control (POC). These POC values were then plotted as a function of compound concentration. A 4-parameter curve-fit analysis was performed for each compound dilution and an IC50 value was calculated from this curve.
(§3) Cell lines • A: PC3 (Androgen independent prostate cancer) • B: K562 (Ph+chronic myelogenous leukemia) • C: MV4-11 (Acute myelogenous leukemia) • D: BxPC3 (Pancreatic Cancer) • E: HepG2 (Hepatocellular Carcinoma) • F: BaF3 (Mouse pro-B-cell line) • G: BaF3 TEL-JAK2 (Mouse pro-B-cell transformed with TEL-JAK2 fusion) • H: BaF2 BCR-Ab1 (Mouse pro-B-cell transformed with BCR-Ab1 fusion)
For orientation: Resazurin is reduced to fluorescent resorufin, in cell work by metabolically active cells.

The test system of test [5] is BxPC3 (Pancreatic Cancer). As to the kind of experiment: Cellular Proliferation Assay, cell line D. The class given is cell-based. The settings on record: Homo sapiens, BXPC-3; BxPC3, 72 hours, CelltiterBlue; read-out: Cell Line D antiproliferative IC50. Here is the method:
as §1, §2, §3

Test [6] relates to HepG2 (Hepatocellular Carcinoma). The test is described as follows: Cellular Proliferation Assay, cell line E. The class given is cell-based. The settings on record: Homo sapiens; HepG2, 72 hours, CelltiterBlue; read-out: Cell Line E antiproliferative IC50. How it is done: as §1, §2, §3

SMILES strings stand for the structures. Where a name gives a salt, the structure may show the parent alone. Read-outs that look alike come from different tables or passages of the source. Where only a bound is given, the exact number is not on record here.

PIM-1, sequence (P11309 whole entry, species assumed): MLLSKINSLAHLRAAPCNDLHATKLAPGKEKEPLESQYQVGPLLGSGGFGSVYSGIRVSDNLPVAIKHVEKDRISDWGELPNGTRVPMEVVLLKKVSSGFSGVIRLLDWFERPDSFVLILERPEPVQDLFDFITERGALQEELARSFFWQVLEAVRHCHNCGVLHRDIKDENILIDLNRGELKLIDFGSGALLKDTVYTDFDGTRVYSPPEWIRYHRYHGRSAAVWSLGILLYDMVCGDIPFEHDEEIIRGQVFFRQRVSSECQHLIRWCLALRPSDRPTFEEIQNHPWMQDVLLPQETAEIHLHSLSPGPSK

With `F[C@@H]1CNCCC1Oc1cccc2ccc(-c3nnc4ccccn34)nc12` (stereo in doubt) [Example 26, 2-([1,2,4]triazolo[4,3-a]pyridin-3-yl)-8-((cis)-3-fluoropiperidin-4-yloxy)quinoline dihydrochloride], the IC50 in test [1] was at most 5000 nM; in test [2] it was under 2000 nM; in test [3], 3 nM; in test [4], under 5000 nM.

For `c1cc(OCC2CCCNC2)c2nc(-c3nnc4ccccn34)ccc2c1` (centres unmarked) [Example 16, 2-([1,2,4]Triazolo[4,3-a]pyridin-3-yl)-8-(piperidin-3-ylmethoxy)quinoline], the IC50 was at most 1000 nM in test [1]; 1 nM in test [3] (35 μM ATP, 0.25 nM PIM-1); under 5000 nM in test [4]; over 10000 nM in test [5]; over 10000 nM in test [6].

Take `CC(C)(CN)COc1cccc2ccc(-c3nnc4ccccn34)nc12` [Example 18, 3-(2-([1,2,4]Triazolo[4,3-a]pyridin-3-yl)quinolin-8-yloxy)-2,2-dimethylpropan-1-amine]: the IC50 is at most 1000 nM in test [1]; under 2000 nM in test [2]; under 2000 nM in test [4]; under 10000 nM in test [5]; under 10000 nM in test [6].
